Source: patent publication US5439885A, “CRF analogs” (The Salk Institute for Biological Studies, priority 1993, dated 1995)
Entries after “also recorded” stand apart in the source; their conditions may differ. Like-named read-outs stand apart in the source and are kept apart here. Where a SMILES comes first, the peptide text is derived from it. Where no end group is shown, it is not given here. [ ]: non-standard residue; d: D form. Nle = CCCC[C@H](N)C(=O)O

Legend:
[1] = lowering of blood pressure when injected peripherally; format: in vivo, mammals; conditions: e.g. intravenously
[2] = biopotency of CRF analog (test not specified)
[3] = tested on: secretion of ACTH and β-END-LI; assay: inhibition of the secretion of ACTH and β-END-LI by CRF antagonists; format: in vivo; conditions: injected peripherally
[4] = CRF in the brain; cited from earlier work
rats = conditions: administered into the ventricles; cited from earlier work
[5] = tested on: secretion of ACTH and β-END-LI; assay: in vivo stimulation of the secretion of ACTH and β-END-LI
Description: (§1) The synthetic CRF agonist peptides [Ala^20 ]-oCRF and [Ala^39 ]-oCRF are examined for their effects on the secretion of ACTH and β-endorphin in vitro and also in vivo. The potency of synthetic oCRF analogs to stimulate the secretion of ACTH and β-endorphin by cultured rat pituitary cells is measured using the procedure as generally set forth in Endocrinology, 91, 562 (1972) and compared against synthetic oCRF. [Ala^20 ]-oCRF is considered to be about 2 to 4 times as potent as the native hormone. […] In vivo testing which can be carried out using the general procedure set forth in C.

[6] = tested on: cultured rat pituitary cells; format: cell-based
Description: as §1

[7] = tested on: cultured rat pituitary cells; conditions: background statement; cited from earlier work
[8] = tested on: secretion of ACTH and β-END-LI; conditions: background statement; cited from earlier work
[9] = background statement; cited from earlier work

Molecule	biopotency [2]	stimulation of ACTH and β-endorphin-like activities (β-END-LI) in vitro [7]	stimulation of ACTH and β-endorphin-like activities (β-END-LI) in vivo [8]	lowering of blood pressure [9]	also measured
CC[C@H](C)[C@H](NC(=O)[C@@H](NC(=O)[C@H](CCC(=O)O)NC(=O)[C@H](CCSC)NC(=O)[C@H](CC(C)C)NC(=O)[C@H](CCCCN)NC(=O)[C@H](CCCNC(=N)N)NC(=O)[C@H](CC(N)=O)NC(=O)[C@H](CO)NC(=O)[C@H](Cc1c[nH]cn1)NC(=O)[C@H](C)NC(=O)[C@H](CCC(N)=O)NC(=O)[C@H](CCC(N)=O)NC(=O)[C@H](C)NC(=O)[C@H](CC(C)C)NC(=O)[C@H](CCC(N)=O)NC(=O)[C@H](CCC(=O)O)NC(=O)[C@H](C)NC(=O)[C@H](CCCNC(=N)N)NC(=O)[C@H](C)NC(=O)[C@H](CCSC)NC(=O)[C@H](C)NC(=O)[C@H](CC(C)C)NC(=O)[C@@H](NC(=O)[C@H](CCC(=O)O)NC(=O)[C@H](CCCNC(=N)N)NC(=O)[C@H](CC(C)C)NC(=O)[C@H](CC(C)C)NC(=O)[C@H](Cc1c[nH]cn1)NC(=O)[C@@H](Cc1ccccc1)NC(=O)[C@@H](NC(=O)[C@H](CC(C)C)NC(=O)[C@H](CC(=O)O)NC(=O)[C@H](CC(C)C)NC(=O)[C@H](CO)NC(=O)[C@@H](NC(=O)[C@@H]1CCCN1C(=O)[C@@H]1CCCN1C(=O)[C@@H](N)CCC(=O)O)[C@@H](C)CC)[C@@H](C)O)C(C)C)[C@@H](C)CC)C(N)=O [IV] (H-EPPISLDLT[dF]HLLREVLAMARAEQLAQQAHSNRKLMEII-NH2)	biopotent				lowering of blood pressure [1]: significant lowering of blood pressure
CCCC[C@H](NC(=O)[C@H](C)NC(=O)[C@H](CC(C)C)NC(=O)[C@@H](NC(=O)[C@H](CCC(=O)O)NC(=O)[C@H](CCCNC(=N)N)NC(=O)[C@H](CC(C)C)NC(=O)[C@H](CC(C)C)NC(=O)[C@H](Cc1c[nH]cn1)NC(=O)[C@H](N)Cc1ccccc1)C(C)C)C(=O)N[C@@H](C)C(=O)N[C@@H](CCCNC(=N)N)C(=O)N[C@@H](C)C(=O)N[C@@H](CCC(=O)O)C(=O)N[C@@H](CCC(N)=O)C(=O)N[C@@H](CC(C)C)C(=O)N[C@@H](C)C(=O)N[C@@H](CCC(N)=O)C(=O)N[C@@H](CCC(N)=O)C(=O)N[C@@H](C)C(=O)N[C@@H](Cc1c[nH]cn1)C(=O)N[C@@H](CO)C(=O)N[C@@H](CC(N)=O)C(=O)N[C@@H](CCCNC(=N)N)C(=O)N[C@@H](CCCNC(=N)N)C(=O)N[C@@H](CC(C)C)C(=O)N[C@@H](CCCC)C(=O)N[C@@H](C)C(=O)N[C@H](C(=O)N[C@H](C(N)=O)[C@@H](C)CC)[C@@H](C)CC [IX] (H-[dF]HLLREVLA[Nle]ARAEQLAQQAHSNRRL[Nle]AII-NH2)	biopotent				inhibition of the secretion of ACTH and β-END-LI [3]: inhibits the secretion of ACTH and β-END-LI
CRF: physiologic corticotropin releasing factor, a hentetracontapeptide; species form not specified at the place (SEEPPISLDLTFHLLREVLEMARAEQLAQQAHSNRKLMEII-NH2; ends and bridges not checked; UniProt P06850 154-194, looked up)					respiratory rate [4]: appears to increase respiratory rate; activity (rats): increases activity; learning performance (rats): improves learning performance
SEEPPISLDLT[dF]HLLREVLA[Nle]ARAEQLAQQAHSNRRL[Nle]AII-NH2 [VIA]	biopotent				lowering of blood pressure [1]: significant lowering of blood pressure; stimulation of the secretion of ACTH and β-END-LI [5]: stimulates the secretion of ACTH and β-END-LI
SQEPPISLDLTFHLLREVLAMTKADQLAQQAHSNRKLLDIA-NH2 [Example I]					potency to stimulate the secretion of ACTH and β-endorphin, times as potent as the native hormone [6]: 2-4 times
SQEPPISLDLTFHLLREVLEMTKADQLAQQAHSNRKLLAIA-NH2 [II]					increase in biopotency in vitro over the native hormone [6]: ~85%
Ser-Gln-Glu-Pro-Pro-Ile-Ser-Leu-Asp-Leu-Thr-Phe-His-Leu-Leu-Arg-Glu-Val-Leu-Glu-Met-Thr-Lys-Ala-Asp-Gln-Leu-Ala-Gln-Gln-Ala-His-Ser-Asn-Arg-Lys-Leu-Leu-Asp-Ile-Ala (SQEPPISLDLTFHLLREVLEMTKADQLAQQAHSNRKLLDIA) [oCRF]		stimulate ACTH and β-endorphin-like activities	stimulates the secretion of ACTH and β-endorphin; also recorded: stimulate ACTH and β-endorphin-like activities	lowers blood pressure; also recorded: substantially lower blood pressure	
Ser-Gln-Glu-Pro-Pro-Ile-Ser-Leu-Asp-Leu-Thr-phe-His-Leu-Leu-Arg-Glu-Met-Leu-Glu-Met-Ala-Lys-Ala-Glu-Gln-Glu-Ala-Glu-Gln-Ala-Ala-Leu-Asn-Arg-Leu-Leu-Leu-Glu-Glu-Ala (SQEPPISLDLTFHLLREMLEMAKAEQEAEQAALNRLLLEEA) [AHC]		stimulate ACTH and β-endorphin-like activities	stimulate ACTH and β-endorphin-like activities	substantially lower blood pressure	
Ser-Glu-Glu-Pro-Pro-Ile-Ser-Leu-Asp-Leu-Thr-phe-His-Leu-Leu-Arg-Glu-Val-Leu-Glu-Met-Ala-Arg-Ala-Glu-Gln-Leu-Ala-Gln-Gln-Ala-His-Ser-Asn-Arg-Lys-Leu-Met-Glu-Ile-Ile (SEEPPISLDLTFHLLREVLEMARAEQLAQQAHSNRKLMEII) [rCRF]		stimulate ACTH and β-endorphin-like activities	stimulate ACTH and β-endorphin-like activities	substantially lower blood pressure	
